Data as given in patent US20060069132A1, “Azolecarboxamide herbicides” (priority 2004, published 2006).

Key:
barnyardgrass [1] = test: Test B pre-/postemergence herbicide test; type: in vivo, Echinochloa crus-galli; settings: for Barnyardgrass plant response rating: postemergence, scale 0 (no effect) to 100 (complete control)
Procedure, shortened: (§1)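 Flooded paddy rice and barnyardgrass were treated at the 2-leaf stage; upland plantings received compound either on sown seed or on 1- to 4-leaf seedlings. All were kept 13–15 days in a greenhouse and scored visually, 0–100, relative to untreated plants.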

Surinam grass = test: Test B pre-/postemergence herbicide test; type: in vivo, Urochloa decumbens; settings: for Surinam Grass plant response rating: postemergence, scale 0 (no effect) to 100 (complete control)
Procedure, shortened: (§2)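 Pre: seeds sown, then sprayed. Post: 1–4-leaf plants (2–18 cm) sprayed at the same time. Paddy: flooded, treated at 2-leaf stage. Formulation: non-phytotoxic solvent with surfactant. Greenhouse 13–15 days; visual 0–100 score relative to controls.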

cocklebur = test: Test B pre-/postemergence herbicide test; type: in vivo, Xanthium strumarium; settings: for Cocklebur plant response rating: postemergence, scale 0 (no effect) to 100 (complete control)
Procedure, shortened: as §1

corn = test: Test B pre-/postemergence herbicide test; type: in vivo, Zea mays; settings: for Corn plant response rating: postemergence, scale 0 (no effect) to 100 (complete control)
Procedure, shortened: as §2

large crabgrass = test: Test B pre-/postemergence herbicide test; type: in vivo, Digitaria sanguinalis; settings: for Crabgrass, Large plant response rating: postemergence, scale 0 (no effect) to 100 (complete control)
Procedure, shortened: as §2

giant foxtail = test: Test B pre-/postemergence herbicide test; type: in vivo, Setaria faberi; settings: for Foxtail, Giant plant response rating: postemergence, scale 0 (no effect) to 100 (complete control)
Procedure, shortened: as §2

lambsquarters = test: Test B pre-/postemergence herbicide test; type: in vivo, Chenopodium album; settings: for Lambsquarters plant response rating: postemergence, scale 0 (no effect) to 100 (complete control)
Procedure, shortened: as §2

morningglory = test: Test B pre-/postemergence herbicide test; type: in vivo, Ipomoea coccinea; settings: for Morningglory plant response rating: postemergence, scale 0 (no effect) to 100 (complete control)
Procedure, shortened: as §1

pigweed = test: Test B pre-/postemergence herbicide test; type: in vivo, Amaranthus retroflexus; settings: for Pigweed plant response rating: postemergence, scale 0 (no effect) to 100 (complete control)
Procedure, shortened: as §2

rice [2] = test: Test B pre-/postemergence herbicide test; type: in vivo, Oryza sativa; settings: 0 = no effect, 100 = complete control, preemergence
Procedure, shortened: as §2

velvetleaf = test: Test B pre-/postemergence herbicide test; type: in vivo, Abutilon theophrasti; settings: for Velvetleaf plant response rating: postemergence, scale 0 (no effect) to 100 (complete control)
Procedure, shortened: as §2

blackgrass = test: Test B postemergence herbicide test; type: in vivo, Alopecurus myosuroides; settings: postemergence, visual rating, scale 0 (no effect) to 100 (complete control)
Procedure, shortened: (§3)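 After treating 2-leaf paddy plants or 2–18 cm postemergence plants (1 to 4 leaves) with formulated chemical, researchers kept them in a greenhouse for 13–15 days. Effects were judged visually versus controls: 0 indicates none, 100 total control.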

wheat = test: Test B postemergence herbicide test; type: in vivo, Triticum aestivum; set-up: key to Wheat plant response rating: 0 = no effect, 100 = complete control; settings: postemergence, visual rating, scale 0 (no effect) to 100 (complete control)
Procedure, shortened: (§4)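 Treated at 2-leaf (paddy) or 1–4-leaf, 2–18 cm (postemergence); greenhouse 13–15 d; visual score vs control, 0 none to 100 complete control; dash = not tested.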

wild oat = test: Test B postemergence herbicide test; type: in vivo, Avena fatua; settings: postemergence, visual rating, scale 0 (no effect) to 100 (complete control)
Procedure, shortened: as §4

rice [3] = test: Test B flooded paddy test; type: in vivo, Oryza sativa; settings: 1000 g ai/ha, scale 0 to 100 (0 no effect, 100 complete control)
Procedure, shortened: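 Plants grow to 1- to 4-leaf stage (2–18 cm) for postemergence spraying, or to 2-leaf stage for the paddy test. Formulated compound is applied. Greenhouse holding lasts 13–15 days. Response is scored visually relative to controls, 0 no effect to 100 complete control; a dash means no result.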

[4] = system: small flower umbrella sedge; test: Test B flooded paddy test; type: in vivo, Cyperus difformis; settings: 1000 g ai/ha, scale 0 to 100 (0 no effect, 100 complete control)
Procedure, shortened: as §3

ducksalad [5] = test: Test B flooded paddy test; type: in vivo, Heteranthera limosa; settings: 1000 g ai/ha, scale 0 to 100 (0 no effect, 100 complete control)
Procedure, shortened: as §3

barnyardgrass [6] = test: Test B flooded paddy test; type: in vivo, Echinochloa crus-galli; settings: 1000 g ai/ha, scale 0 to 100 (0 no effect, 100 complete control)
Procedure, shortened: as §3

rice [7] = test: Test C flooded paddy test; type: in vivo, Oryza sativa
Procedure, shortened: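 Postemergence sprays applied to plants 2 to 18 cm tall (1- to 4-leaf stage); paddy species grown to 2-leaf stage under flooding. After 12 to 14 days in greenhouse, visual rating versus untreated controls on 0–100 scale (0 no effect, 100 complete control).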

[8] = system: smallflower umbrella sedge; test: Test C flooded paddy test; type: in vivo, Cyperus difformis
ducksalad [9] = test: Test C flooded paddy test; type: in vivo, Heteranthera limosa
barnyardgrass [10] = test: Test C flooded paddy test; type: in vivo, Echinochloa crus-galli
Procedure, shortened: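 After a postemergence application at 1 to 4 leaves (plants 2–18 cm high), or at 2 leaves for barnyardgrass in flooded paddy, plants stayed in the greenhouse for 12 to 14 days. Damage was then judged visually relative to control plants, with 100 indicating complete control.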

[11] = 125 g ai/ha, 0 = no effect, 100 = complete control, preemergence
[12] = 500 g ai/ha, visual rating, 0 = no effect, 100 = complete control, preemergence
[13] = 62 g ai/ha, scale 0 to 100 (0 no effect, 100 complete control)
[14] = 125 g ai/ha, scale 0 to 100 (0 no effect, 100 complete control)
[15] = 250 g ai/ha, scale of 0 to 100, 0 is no effect, 100 is complete control
[16] = 500 g ai/ha, visual rating after 12 to 14 days, scale 0 to 100 (0 no effect, 100 complete control)

Compound: CCc1nc(C(C)(C)C)sc1C(=O)Nc1cc(C(=O)N(C)CC)ccc1F [Compound 231]
- Barnyardgrass plant response rating (0 to 100 scale) (barnyardgrass [1]; [11]): 50
- Plant response rating, Barnyardgrass (barnyardgrass [1]; [12]): 80
- Barnyardgrass plant response rating (barnyardgrass [1]; 125 g ai/ha, visual rating): 10
- Barnyardgrass plant response rating (barnyardgrass [1]; 500 g ai/ha, visual rating): 40
- Surinam Grass plant response rating (0 to 100 scale) (Surinam grass; [11]): 20
- Plant response rating, Surinam Grass (Surinam grass; [12]): 60
- Surinam Grass plant response rating (Surinam grass; 125 g ai/ha, visual rating): 10
- Surinam Grass plant response rating (Surinam grass; 500 g ai/ha, visual rating): 30
- Cocklebur plant response rating (0 to 100 scale) (cocklebur; [11]): 0
- Plant response rating, Cocklebur (cocklebur; [12]): 30
- Cocklebur plant response rating (cocklebur; 125 g ai/ha, visual rating): 10
- Cocklebur plant response rating (cocklebur; 500 g ai/ha, visual rating): 40
- Corn plant response rating (0 to 100 scale) (corn; [11]): 0
- Plant response rating, Corn (corn; [12]): 50
- Corn plant response rating (corn; 125 g ai/ha, visual rating): 10
- Corn plant response rating (corn; 500 g ai/ha, visual rating): 20
- Crabgrass, Large plant response rating (0 to 100 scale) (large crabgrass; [11]): 30
- Plant response rating, Crabgrass, Large (large crabgrass; [12]): 90
- Crabgrass, Large plant response rating (large crabgrass; 125 g ai/ha, visual rating): 20
- Crabgrass, Large plant response rating (large crabgrass; 500 g ai/ha, visual rating): 20
- Foxtail, Giant plant response rating (0 to 100 scale) (giant foxtail; [11]): 60
- Plant response rating, Foxtail, Giant (giant foxtail; [12]): 90
- Foxtail, Giant plant response rating (giant foxtail; 125 g ai/ha, visual rating): 20
- Foxtail, Giant plant response rating (giant foxtail; 500 g ai/ha, visual rating): 30
- Lambsquarters plant response rating (0 to 100 scale) (lambsquarters; [11]): 80
- Plant response rating, Lambsquarters (lambsquarters; [12]): 100
- Lambsquarters plant response rating (lambsquarters; 125 g ai/ha, visual rating): 60
- Lambsquarters plant response rating (lambsquarters; 500 g ai/ha, visual rating): 70
- Morningglory plant response rating (0 to 100 scale) (morningglory; [11]): 10
- Plant response rating, Morningglory (morningglory; [12]): 10
- Morningglory plant response rating (morningglory; 125 g ai/ha, visual rating): 20
- Morningglory plant response rating (morningglory; 500 g ai/ha, visual rating): 70
- Pigweed plant response rating (0 to 100 scale) (pigweed; [11]): 60
- Plant response rating, Pigweed (pigweed; [12]): 100
- Pigweed plant response rating (pigweed; 125 g ai/ha, visual rating): 50
- Pigweed plant response rating (pigweed; 500 g ai/ha, visual rating): 70
- Rice plant response rating (0 to 100 scale) (rice [2]; 125 g ai/ha): 20
- Plant response rating, Rice (rice [2]; 500 g ai/ha, visual rating): 50
- Velvetleaf plant response rating (0 to 100 scale) (velvetleaf; [11]): 30
- Plant response rating, Velvetleaf (velvetleaf; [12]): 90
- Velvetleaf plant response rating (velvetleaf; 125 g ai/ha, visual rating): 30
- Velvetleaf plant response rating (velvetleaf; 500 g ai/ha, visual rating): 50
- Blackgrass plant response rating (blackgrass; 125 g ai/ha): 20
- Blackgrass plant response rating (blackgrass; 500 g ai/ha): 30
- Wheat plant response rating (wheat; 125 g ai/ha): 20
- Wheat plant response rating (wheat; 500 g ai/ha): 40
- Oat, Wild plant response rating (wild oat; 125 g ai/ha): 20
- Oat, Wild plant response rating (wild oat; 500 g ai/ha): 40
- Rice plant response rating (rice [3]): 80
- Sedge, Umbrella plant response rating [4]: 90
- Ducksalad plant response rating (ducksalad [5]): 90
- Barnyardgrass plant response rating (barnyardgrass [6]): 80
- Rice plant response rating (rice [7]; [13]): 30
- Rice plant response rating (rice [7]; [14]): 55
- Rice plant response rating (rice [7]; [15]): 75
- Plant response rating, Rice (rice [7]; [16]): 80
- Sedge, Umbrella plant response rating [8, 13]: 10
- Sedge, Umbrella plant response rating [8, 14]: 55
- Sedge, Umbrella plant response rating [8, 15]: 65
- Plant response rating, Sedge, Umbrella [8, 16]: 75
- Ducksalad plant response rating (ducksalad [9]; [13]): 10
- Ducksalad plant response rating (ducksalad [9]; [14]): 60
- Ducksalad plant response rating (ducksalad [9]; [15]): 70
- Plant response rating, Ducksalad (ducksalad [9]; [16]): 80
- Barnyardgrass plant response rating (barnyardgrass [10]; [13]): 40
- Barnyardgrass plant response rating (barnyardgrass [10]; [14]): 45
- Barnyardgrass plant response rating (barnyardgrass [10]; [15]): 75
- Plant response rating, Barnyardgrass (barnyardgrass [10]; [16]): 80
